Experiment [1] relates to T-cell. Briefly: IL-2 secretion from T-cells co-stimulated with anti-CD3 and anti-CD28 antibody (Biological Example 2). It is filed as cell-based, human. To be noted: Homo sapiens, T-cell, primary human total T-cells, baseline = anti-CD3/anti-CD28 stimulated cells without inhibitor, read-out: IL-2 secretion, Anti-CD3/Anti-CD28 stimulation, fold change over baseline; for fold induction at 0.3 µM: 0.3 μM compound; for fold induction at 1 µM: 1 μM compound; for fold induction at 4 µM: 4 μM compound. The essentials: (§1)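 Values are fold-change over baseline: readings (IL-2 release, CD25 staining) from inhibitor-treated T-cells divided against untreated cells […]. No detailed procedure stated.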

The test system of experiment [2] is T-cell. The experiment can be described thus: CD25 cell surface staining on T-cells co-stimulated with anti-CD3 and anti-CD28 antibody (Biological Example 2). It is filed as cell-based, human. To be noted: Homo sapiens, T-cell, primary human total T-cells, baseline = anti-CD3/anti-CD28 stimulated cells without inhibitor, read-out: CD25 staining, Anti-CD3/Anti-CD28 stimulation, fold change over baseline; for fold induction at 0.3 µM: 0.3 μM compound; for fold induction at 1 µM: 1 μM compound; for fold induction at 4 µM: 4 μM compound. In short, it runs like this:
as §1

The target of the next experiment is Cbl-b (Homo sapiens, UniProt Q13191). The experiment can be described thus: Cbl-b activity assay (Cbl-b inhibition assay), TR-FRET of Cbl-b interaction with UbcH5B-Ub. It is filed as biochemical. The note with it: assay buffer with 100 mM NaCl, 60 nM Src kinase; read-out: Cbl-b activity IC50. The essentials: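 Compound-treated Cbl-b was incubated 1.5 h with Src kinase (60 nM final; 30 nM for asterisked values, which also used 50 mM instead of 100 mM NaCl), 1 mM ATP and 5 mM MgCl2. Binding to fluorescent Ub-loaded UbcH5B (C85K mutant) was then read by TR-FRET after 1 h more.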
In general terms: TR-FRET usually uses a lanthanide donor and a delayed reading to cut background.

Each structure is given as a SMILES string. Some results are limits rather than exact numbers.

By IC50 is commonly meant the concentration needed to halve the response being measured.

Sequence of Cbl-b (Q13191 36-427): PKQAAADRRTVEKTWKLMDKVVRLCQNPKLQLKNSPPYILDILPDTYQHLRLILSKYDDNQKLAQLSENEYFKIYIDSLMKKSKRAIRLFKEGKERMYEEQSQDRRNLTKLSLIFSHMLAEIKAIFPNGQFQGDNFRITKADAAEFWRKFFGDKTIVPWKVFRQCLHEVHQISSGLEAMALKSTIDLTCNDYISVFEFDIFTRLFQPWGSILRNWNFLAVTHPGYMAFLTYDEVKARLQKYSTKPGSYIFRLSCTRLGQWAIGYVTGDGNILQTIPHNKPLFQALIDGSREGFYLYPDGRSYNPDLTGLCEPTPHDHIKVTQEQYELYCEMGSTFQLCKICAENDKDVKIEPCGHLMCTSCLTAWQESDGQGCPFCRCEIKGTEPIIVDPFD

On to `Cc1n[nH]c(C)c1-c1cc2c(c(C(F)(F)F)c1)CN(c1cccc(C3(Cc4nncn4C)COC3)c1)C2=O` [Compound 385, 6-(3,5-dimethyl-1H-pyrazol-4-yl)-2-(3-{3-[(4-methyl-4H-1,2,4-triazol-3-yl)methyl]oxetan-3-yl}phenyl)-4-(trifluoromethyl)-2,3-dihydro-1H-isoindol-1-one], for which, in the experiment on T-cell [1], the fold induction at 0.3 µM lay within 1.01 to 2.5, the fold induction at 1 µM lay in the range of 2.51 to 5 and the fold induction at 4 µM was > 7.5. In the experiment on T-cell [2], the fold induction at 0.3 µM lay in the range of 1.01 to 1.3, the fold induction at 1 µM fell in the range of 1.01 to 1.3 and the fold induction at 4 µM is 1.31 to 1.5. For the same compound, the IC50 on Cbl-b is < 100 nM.
On to `C[C@H](Cc1nncn1C)c1cccc(N2Cc3c(cc(CN4CC(O)C4)cc3C(F)(F)F)C2=O)c1` [Compound 393, (R)-6-((3-hydroxyazetidin-1-yl)methyl)-2-(3-(1-(4-methyl-4H-1,2,4-triazol-3-yl)propan-2-yl)phenyl)-4-(trifluoromethyl)isoindolin-1-one], for which, in the experiment on T-cell [1], the fold induction at 0.3 µM was in the range of 2.51 to 5, the fold induction at 1 µM was > 7.5 and the fold induction at 4 µM is > 7.5. Besides, in the experiment with T-cell [2], the fold induction at 0.3 µM was in the range of 1.01 to 1.3, the fold induction at 1 µM is 1.31 to 1.5 and the fold induction at 4 µM was 1.31 to 1.5. Also, the 50% inhibitory concentration (IC50) on Cbl-b is < 100 nM.
In the case of `C[C@H](Cc1nncn1C)c1cccc(N2Cc3c(cc(CN4CC(C)(O)C4)cc3C(F)(F)F)C2=O)c1` [Compound 397], in the experiment with T-cell [1], the fold induction at 0.3 µM fell in the range of 2.51 to 5, the fold induction at 1 µM is > 7.5 and the fold induction at 4 µM was > 7.5. Further, in the experiment on T-cell [2], the fold induction at 0.3 µM fell in the range of 1.01 to 1.3, the fold induction at 1 µM is 1.31 to 1.5 and the fold induction at 4 µM was in the range of 1.31 to 1.5. Moreover, the IC50 on Cbl-b was < 100 nM.
Regarding `C[C@H](Cc1nncn1C)c1cccc(N2Cc3c(cc(CN4CC[C@](C)(O)C4)cc3C(F)(F)F)C2=O)c1` [Compound 398, 6-(((S)-3-hydroxy-3-methylpyrrolidin-1-yl)methyl)-2-(3-((R)-1-(4-methyl-4H-1,2,4-triazol-3-yl)propan-2-yl)phenyl)-4-(trifluoromethyl)isoindolin-1-one], in the experiment on T-cell [1], the fold induction at 0.3 µM was in the range of 2.51 to 5, the fold induction at 1 µM was 5 to 7.5 and the fold induction at 4 µM is > 7.5. Besides, in the experiment on T-cell [2], the fold induction at 0.3 µM is 1.01 to 1.3, the fold induction at 1 µM was 1.31 to 1.5 and the fold induction at 4 µM lay within 1.31 to 1.5. The IC50 on Cbl-b is < 100 nM.
Regarding `C[C@H](Cc1nncn1C)c1cccc(N2Cc3c(cc(CN4CC[C@H](F)C4)cc3C(F)(F)F)C2=O)c1` [Compound 399, 6-(((S)-3-fluoropyrrolidin-1-yl)methyl)-2-(3-((R)-1-(4-methyl-4H-1,2,4-triazol-3-yl)propan-2-yl)phenyl)-4-(trifluoromethyl)isoindolin-1-one], in the experiment on T-cell [1], the fold induction at 0.3 µM was 5 to 7.5, the fold induction at 1 µM is > 7.5 and the fold induction at 4 µM was > 7.5. In addition, in the experiment on T-cell [2], the fold induction at 0.3 µM lay within 1.01 to 1.3, the fold induction at 1 µM was 1.31 to 1.5 and the fold induction at 4 µM lay in the range of 1.31 to 1.5. Also, the 50% inhibitory concentration (IC50) at Cbl-b is < 100 nM.
As for `Cn1cnnc1CC1(c2cccc(N3Cc4c(cc(CN5CC[C@H](F)C5)cc4C(F)(F)F)C3=O)c2)COC1` [Compound 410, 6-{[(3S)-3-fluoropyrrolidin-1-yl]methyl}-2-(3-{3-[(4-methyl-4H-1,2,4-triazol-3-yl)methyl]oxetan-3-yl}phenyl)-4-(trifluoromethyl)-2,3-dihydro-1H-isoindol-1-one], in the experiment on T-cell [1], the fold induction at 0.3 µM was 5 to 7.5, the fold induction at 1 µM was > 7.5 and the fold induction at 4 µM is > 7.5. In addition, in the experiment with T-cell [2], the fold induction at 0.3 µM fell in the range of 1.31 to 1.5, the fold induction at 1 µM was in the range of 1.51 to 1.75 and the fold induction at 4 µM lay in the range of 1.51 to 1.75. For the same compound, at Cbl-b, the IC50 is < 100 nM.
For the compound `C[C@@H](c1cc2c(c(C(F)(F)F)c1)CN(c1cccc(C3(Cc4nncn4C)COC3)c1)C2=O)N1CC[C@H](F)C1` [Compound 412, 6-((S)-1-((S)-3-fluoropyrrolidin-1-yl)ethyl)-2-(3-(3-((4-methyl-4H-1,2,4-triazol-3-yl)methyl)oxetan-3-yl)phenyl)-4-(trifluoromethyl)isoindolin-1-one], in the experiment on T-cell [1], the fold induction at 0.3 µM was > 7.5, the fold induction at 1 µM is > 7.5 and the fold induction at 4 µM is > 7.5. For the same compound, in the experiment with T-cell [2], the fold induction at 0.3 µM lay in the range of 1.31 to 1.5, the fold induction at 1 µM fell in the range of 1.51 to 1.75 and the fold induction at 4 µM was in the range of 1.51 to 1.75. Also, the half-inhibitory concentration (IC50) at Cbl-b is < 100 nM.
In the case of `C[C@H](c1cc2c(c(C(F)(F)F)c1)CN(c1cccc(C3(Cc4nncn4C)COC3)c1)C2=O)N1CC[C@H](F)C1` [Compound 413, 6-((R)-1-((S)-3-fluoropyrrolidin-1-yl)ethyl)-2-(3-(3-((4-methyl-4H-1,2,4-triazol-3-yl)methyl)oxetan-3-yl)phenyl)-4-(trifluoromethyl)isoindolin-1-one], in the experiment with T-cell [1], the fold induction at 0.3 µM is 5 to 7.5, the fold induction at 1 µM was > 7.5 and the fold induction at 4 µM was > 7.5. Moreover, in the experiment with T-cell [2], the fold induction at 0.3 µM was in the range of 1.31 to 1.5, the fold induction at 1 µM lay within 1.51 to 1.75 and the fold induction at 4 µM is 1.31 to 1.5. Further, the half-inhibitory concentration (IC50) at Cbl-b was < 100 nM.
Consider `Cn1cnnc1CC1(c2cccc(N3Cc4c(cc(CN5CC(F)C5)cc4C(F)(F)F)C3=O)c2)COC1` [Compound 415, 6-((3-fluoroazetidin-1-yl)methyl)-2-(3-(3-((4-methyl-4H-1,2,4-triazol-3-yl)methyl)oxetan-3-yl)phenyl)-4-(trifluoromethyl)isoindolin-1-one], for which, in the experiment with T-cell [1], the fold induction at 0.3 µM lay within 5 to 7.5, the fold induction at 1 µM is > 7.5 and the fold induction at 4 µM was > 7.5. In addition, in the experiment with T-cell [2], the fold induction at 0.3 µM lay within 1.31 to 1.5, the fold induction at 1 µM was in the range of 1.31 to 1.5 and the fold induction at 4 µM lay within 1.51 to 1.75. Moreover, the half-maximal inhibitory concentration (IC50) on Cbl-b is < 100 nM.
In the case of `Cn1cnnc1CC1(c2cccc(N3Cc4c(cc(CN5CC[C@@H](C#N)C5)cc4C(F)(F)F)C3=O)c2)COC1` [Compound 421, (R)-1-((2-(3-(3-((4-methyl-4H-1,2,4-triazol-3-yl)methyl)oxetan-3-yl)phenyl)-3-oxo-7-(trifluoromethyl)isoindolin-5-yl)methyl)pyrrolidine-3-carbonitrile], in the experiment on T-cell [1], the fold induction at 0.3 µM lay within 5 to 7.5, the fold induction at 1 µM is > 7.5 and the fold induction at 4 µM is > 7.5. In addition, in the experiment with T-cell [2], the fold induction at 0.3 µM fell in the range of 1.01 to 1.3, the fold induction at 1 µM lay within 1.01 to 1.3 and the fold induction at 4 µM fell in the range of 1.31 to 1.5. In addition, the IC50 at Cbl-b is < 100 nM.
As to `Cn1cnnc1CC1(c2cccc(N3Cc4c(cc(CN5CC[C@H](C#N)C5)cc4C(F)(F)F)C3=O)c2)COC1` [Compound 422, (S)-1-((2-(3-(3-((4-methyl-4H-1,2,4-triazol-3-yl)methyl)oxetan-3-yl)phenyl)-3-oxo-7-(trifluoromethyl)isoindolin-5-yl)methyl)pyrrolidine-3-carbonitrile], in the experiment with T-cell [1], the fold induction at 0.3 µM fell in the range of 5 to 7.5, the fold induction at 1 µM was > 7.5 and the fold induction at 4 µM is > 7.5. In the experiment with T-cell [2], the fold induction at 0.3 µM lay in the range of 1.31 to 1.5, the fold induction at 1 µM was in the range of 1.31 to 1.5 and the fold induction at 4 µM was in the range of 1.31 to 1.5. Also, at Cbl-b, the IC50 was < 100 nM.
